# Test results: publication PMC4399838, “Antipsychotic-Like Effect of the Muscarinic Acetylcholine Receptor Agonist BuTAC in Non-Human Primates” (PLoS ONE, 2015)
# Like-named read-outs stand apart in the source and are kept apart here.
# Experiments:
# [1] = target: T1, human M1 muscarinic receptor (Homo sapiens, UniProt P11229); set-up: method as in Watt et al. 2013 [10]; details: ref Watt et al. 2013 [10], cited from earlier work
# T1 construct: purchased PerkinElmer Life and Analytical Sciences, Boston, MA
# T1 sequence (P11229 1-460): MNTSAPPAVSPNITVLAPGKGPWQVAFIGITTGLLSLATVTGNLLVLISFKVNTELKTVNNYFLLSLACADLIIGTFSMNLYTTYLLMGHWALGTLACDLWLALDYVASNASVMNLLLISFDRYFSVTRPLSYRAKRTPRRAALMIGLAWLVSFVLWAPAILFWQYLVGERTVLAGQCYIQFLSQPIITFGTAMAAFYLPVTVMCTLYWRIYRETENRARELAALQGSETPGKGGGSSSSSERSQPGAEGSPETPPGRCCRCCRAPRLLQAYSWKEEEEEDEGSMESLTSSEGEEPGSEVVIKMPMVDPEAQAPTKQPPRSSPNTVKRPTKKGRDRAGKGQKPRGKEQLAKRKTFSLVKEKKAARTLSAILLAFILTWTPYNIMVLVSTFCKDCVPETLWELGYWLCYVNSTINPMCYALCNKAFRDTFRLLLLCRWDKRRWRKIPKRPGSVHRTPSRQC
# [2] = target: T2, human M2 muscarinic receptor (Homo sapiens, UniProt P08172); set-up: method as in Watt et al. 2013 [10]; details: agonist mode, ref Watt et al. 2013 [10], cited from earlier work
# T2 construct: purchased PerkinElmer Life and Analytical Sciences, Boston, MA
# T2 sequence (P08172 1-466): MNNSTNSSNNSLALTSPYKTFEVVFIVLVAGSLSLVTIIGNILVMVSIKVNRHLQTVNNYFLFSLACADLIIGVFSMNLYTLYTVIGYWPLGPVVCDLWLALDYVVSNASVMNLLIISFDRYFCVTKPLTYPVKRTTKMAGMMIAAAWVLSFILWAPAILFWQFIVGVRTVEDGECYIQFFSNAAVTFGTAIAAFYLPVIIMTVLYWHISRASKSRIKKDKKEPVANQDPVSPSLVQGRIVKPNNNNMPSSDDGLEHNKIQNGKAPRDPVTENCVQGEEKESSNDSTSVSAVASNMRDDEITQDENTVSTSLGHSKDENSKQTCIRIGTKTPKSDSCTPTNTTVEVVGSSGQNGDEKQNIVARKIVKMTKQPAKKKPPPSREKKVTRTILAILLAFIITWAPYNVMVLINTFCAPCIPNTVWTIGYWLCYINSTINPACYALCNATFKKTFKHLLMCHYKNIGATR
# [3] = target: T3, human M3 muscarinic receptor (Homo sapiens, UniProt P20309); set-up: method as in Watt et al. 2013 [10]; details: antagonist mode, ref Watt et al. 2013 [10], cited from earlier work
# T3 construct: purchased PerkinElmer Life and Analytical Sciences, Boston, MA
# [4] = target: T4, human M4 muscarinic receptor (Homo sapiens, UniProt P08173); set-up: method as in Watt et al. 2013 [10]; details: ref Watt et al. 2013 [10], cited from earlier work
# T4 construct: purchased PerkinElmer Life and Analytical Sciences, Boston, MA
# T4 sequence (P08173 1-479): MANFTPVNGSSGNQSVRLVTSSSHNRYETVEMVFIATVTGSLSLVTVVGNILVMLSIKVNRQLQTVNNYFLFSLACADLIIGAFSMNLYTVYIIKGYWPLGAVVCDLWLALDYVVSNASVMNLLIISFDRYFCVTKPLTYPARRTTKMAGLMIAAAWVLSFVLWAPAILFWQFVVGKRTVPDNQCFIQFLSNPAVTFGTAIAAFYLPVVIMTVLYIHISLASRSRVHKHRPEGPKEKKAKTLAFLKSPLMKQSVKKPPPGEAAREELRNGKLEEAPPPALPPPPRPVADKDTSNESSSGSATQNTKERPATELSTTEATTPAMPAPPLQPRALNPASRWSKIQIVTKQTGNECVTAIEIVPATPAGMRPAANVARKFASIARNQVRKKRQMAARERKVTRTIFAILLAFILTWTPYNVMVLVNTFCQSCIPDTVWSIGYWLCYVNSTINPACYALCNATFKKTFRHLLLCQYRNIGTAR
# [5] = target: T2, human M2 muscarinic receptor; experiment: GTP-γ-[35S] binding, antibody capture SPA (agonist and antagonist mode); assay type: biochemical
# Method: (§1) The antibody capture scintillation proximity technique previously described by DeLapp et al was used in a 96-well plate to determine GTP-γ-[35S] binding. One hundred μl (20–40 fmol/well) of membrane preparation from CHO cells that stably express the human M1-M5 muscarinic receptors (PerkinElmer Life and Analytical Sciences, Boston, MA) were incubated with varying concentration of test compound (final concentrations from 50pM to 1μM) for 30 min. One μM final concentration of GDP was added to M2 and M4 receptor membranes before incubation. […] (500 pM final concentration; Perkin Elmer Life and Analytical Sciences) was added to each well followed by 30 min of incubation. Then the labelled membranes were solubilized with 0.27% Nonidet P40 for 30 min where after they were incubated with 20 μl (final dilution of 1:400) of the appropriate rabbit polyclonal Gα antibody (Covance, Princeton, NJ) for 60 min. An anti-Gαq/11 antibody was used for the M1-, M3-, and M5 membranes, whereas an anti-Gαi-3 antibody was used for the M2- and M4 membranes (Eli Lilly and Company, Indianapolis, IN). After 60 min of incubation, 50 μl (1.25 mg/well) anti-rabbit scintillation proximity assay (SPA) beads (GE Healthcare, Piscataway, NJ) were added per well where after the plates were incubated for another 3 h. By use of a Wallac MicroBeta TriLux scintillation counter (PerkinElmer), the plates were centrifuged for 10 min at 700 × g and counted for 1 min per well. The incubations took place at room temperature in GTP-binding assay buffer (20 mM Hepes, 100 mm NaCl, 5 mM MgC12, pH 7.4). The data were analyzed by use of nonlinear regression for a sigmoidal concentration response curve (GraphPad Prism v. 4.0). Data were normalized to a full agonist response (100 μM oxotremorine-M). […] The antagonist percent inhibition data were normalized to data generated with an EC90 concentration of acetylcholine. The mean relative EC50, IC50, and %Emax, and pKi values were calculated as a mean of at least three independent experiments±SEM. In order to obtain relevant comparisons between subtypes, the experimental system is routinely calibrated with reference agonists (oxotremorine-M, pilocarpine, MCN-A343) to measure full and partial agonism as well as to ensure that the system is not under- or over-reporting functional efficacies. The radioligand binding assays have earlier been described.
# [6] = target: T3, human M3 muscarinic receptor; experiment: as above; assay type: biochemical
# Method: as §1
# [7] = agonist mode, negative log-transformed
# [8] = antagonist mode, negative log-transformed
# [9] = antagonist mode, maximal inhibition of EC90 agonist response
# [10] = percentage of maximum 100 μM oxotremorine-M signal
# T3 sequence (P20309 whole entry): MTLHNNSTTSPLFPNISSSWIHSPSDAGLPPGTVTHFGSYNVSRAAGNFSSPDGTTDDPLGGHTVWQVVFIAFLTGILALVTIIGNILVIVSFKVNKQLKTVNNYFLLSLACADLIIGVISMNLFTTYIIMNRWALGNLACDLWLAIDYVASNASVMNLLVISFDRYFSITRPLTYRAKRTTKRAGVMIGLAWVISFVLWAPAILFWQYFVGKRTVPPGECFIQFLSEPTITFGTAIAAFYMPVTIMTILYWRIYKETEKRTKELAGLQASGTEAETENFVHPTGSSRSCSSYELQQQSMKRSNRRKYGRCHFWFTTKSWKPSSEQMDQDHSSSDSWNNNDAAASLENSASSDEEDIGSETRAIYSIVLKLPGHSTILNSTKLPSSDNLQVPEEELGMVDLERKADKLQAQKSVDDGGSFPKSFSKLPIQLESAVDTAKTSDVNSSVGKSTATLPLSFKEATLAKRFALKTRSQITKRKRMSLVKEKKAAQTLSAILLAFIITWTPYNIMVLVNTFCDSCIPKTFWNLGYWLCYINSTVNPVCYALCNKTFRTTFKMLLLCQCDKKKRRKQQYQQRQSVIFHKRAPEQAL
Compound,"Rel pEC50 [1, 7]",% Emax ([1]; agonist mode),"Rel pIC50 [1, 8]",% Inhibition ([1]; antagonist mode),Rel pEC50 ([2]; negative log-transformed),% Emax [2],Rel pIC50 ([3]; negative log-transformed),% Inhibition [3],"Rel pEC50 [4, 7]",% Emax ([4]; agonist mode),"Rel pIC50 [4, 8]",% Inhibition ([4]; antagonist mode),EC50 [5],IC50 [5],"% Inhibition [5, 9]","Emax [5, 10]",EC50 [6],IC50 [6],"% Inhibition [6, 9]","Emax [6, 10]"
"CCCCSc1nsnc1[C@H]1CN2CCC[C@H]1C2 [BuTAC, (5R,6R)-6-(3-butylthio-1,2,5-thiadiazol-4-yl)-1-azabicyclo[3.2.1]octane]",9.22±9.80 M,33.56±6.29%,9.03±10.01 M,57.27±2.35%,9.56 ±10.26 M,136.53 ± 17.20%,8.55 ± 8.59 M,100.00 ± 0.00%,10.27 ± 10.31 M,35.53 ± 11.51%,9.19 ± 9.13 M,57.55 ± 3.22%,,,,,,,,
"CCCSc1nsnc1[C@H]1CN2CCC[C@H]1C2 [PTAC, (5R,6R) 6-(3-propylthio-1,2,5-thiadiazol-4-yl)-1-azabicyclo-[3.2.1]-octane]",,,,,,,,,,,,,0.501 nM,3.47 nM,16.8 ± 5.49%,68.5 ± 5.23%,1.95 nM,20.4 nM,90.45 ± 3.52%,11.9 ± 3.07%
